Laboratory results reported in patent US20250179032A1, “HETEROCYCLIC INHIBITORS OF GLUT9 FOR TREATMENT OF DISEASE” (HORIZON THERAPEUTICS IRELAND DAC, priority 2022, published 2025).

Each compound was assayed against T1, H. sapiens SLC2A9 variant 2 (GLUT9B) (Homo sapiens, UniProt Q9NRM0) (assay: GLUT9 functional assay: uric acid uptake in HEK293T cells, allantoin formation by MS/MS as proxy of GLUT9B inhibition). Details: 15 minute assay; HEK293T cells stably expressing GLUT9B and transiently A. oryzae uricase; uric acid 0.3 mM, 37° C.; read-out: 15 min IC50.
T1 sequence (Q9NRM0 1-511 isoform Q9NRM0-2): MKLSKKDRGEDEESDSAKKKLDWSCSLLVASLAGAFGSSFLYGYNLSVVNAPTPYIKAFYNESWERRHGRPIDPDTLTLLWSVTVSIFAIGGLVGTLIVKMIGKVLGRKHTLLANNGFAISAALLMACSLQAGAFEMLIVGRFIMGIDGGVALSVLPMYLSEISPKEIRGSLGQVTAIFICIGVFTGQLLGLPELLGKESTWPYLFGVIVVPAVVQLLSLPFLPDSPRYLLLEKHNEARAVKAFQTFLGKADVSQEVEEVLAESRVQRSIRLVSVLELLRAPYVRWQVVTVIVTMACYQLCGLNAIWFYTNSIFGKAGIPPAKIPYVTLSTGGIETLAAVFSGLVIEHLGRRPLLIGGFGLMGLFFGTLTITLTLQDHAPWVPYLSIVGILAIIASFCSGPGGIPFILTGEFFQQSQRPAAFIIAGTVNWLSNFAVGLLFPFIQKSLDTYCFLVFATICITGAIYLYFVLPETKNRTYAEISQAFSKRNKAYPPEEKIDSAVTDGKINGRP
Type: cell-based
Outline: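 Inhibition of GLUT9B-mediated urate uptake read as reduced allantoin formation, measured by MS/MS against allantoin standards in HEK293T matrix with log-logistic fitting. Stable GLUT9B HEK293T cells carrying transfected A. oryzae uricase were incubated 15 or 60 min at 37° C with uric acid at Km (0.3 mM), pH 7.4 gluconate buffer.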

Compound	IC50
CC(F)(F)CCc1cnc(-c2ccc3c(c2)OCO3)c(N2CCC(C(=O)O)CC2)n1 [Compound 136]	< 500 nM
COCCOc1ccc(-c2ncc(CCC(C)(F)F)nc2N2CCC(C(=O)O)CC2)cc1 [Compound 137, 1-(6-(3,3-difluorobutyl)-3-(4-(2-methoxyethoxy)phenyl)pyrazin-2-yl)piperidine-4-carboxylic acid]	500 to 2000 nM
COCCCCc1cnc(-c2ccc3occc3c2)c(N2CCC(C(=O)O)CC2)n1 [Compound 138, 1-(3-(benzofuran-5-yl)-6-(4-methoxybutyl)pyrazin-2-yl)piperidine-4-carboxylic acid]	< 500 nM
COCCCCc1cnc(-c2ccc3c(c2)CCO3)c(N2CCC(C(=O)O)CC2)n1 [Compound 139, 1-(3-(2,3-dihydrobenzofuran-5-yl)-6-(4-methoxybutyl)pyrazin-2-yl)piperidine-4-carboxylic acid]	< 500 nM
COCCCCc1cnc(-c2ccc3c(c2)OCO3)c(N2CCC(C(=O)O)CC2)n1 [Compound 140, 1-(3-(benzo[d][1,3]dioxol-5-yl)-6-(4-methoxybutyl)pyrazin-2-yl)piperidine-4-carboxylic acid]	< 500 nM
COCCCCc1cnc(-c2ccc(OCCOC)cc2)c(N2CCC(C(=O)O)CC2)n1 [Compound 141, 1-(6-(4-methoxybutyl)-3-(4-(2-methoxyethoxy)phenyl)pyrazin-2-yl)piperidine-4-carboxylic acid]	< 500 nM
O=C(O)C1CCN(c2nc(CCCC(F)F)cnc2-c2ccc3occc3c2)CC1 [Compound 142, 1-(3-(benzofuran-5-yl)-6-(4,4-difluorobutyl)pyrazin-2-yl)piperidine-4-carboxylic acid]	< 500 nM
O=C(O)C1CCN(c2nc(CCCC(F)F)cnc2-c2ccc3c(c2)CCO3)CC1 [Compound 143, 1-(6-(4,4-difluorobutyl)-3-(2,3-dihydrobenzofuran-5-yl)pyrazin-2-yl)piperidine-4-carboxylic acid]	< 500 nM
O=C(O)C1CCN(c2nc(CCCC(F)F)cnc2-c2ccc3c(c2)OCO3)CC1 [Compound 144, 1-(3-(benzo[d][1,3]dioxol-5-yl)-6-(4,4-difluorobutyl)pyrazin-2-yl)piperidine-4-carboxylic acid]	< 500 nM
COCCOc1ccc(-c2ncc(CCCC(F)F)nc2N2CCC(C(=O)O)CC2)cc1 [Compound 145, 1-(6-(4,4-difluorobutyl)-3-(4-(2-methoxyethoxy)phenyl)pyrazin-2-yl)piperidine-4-carboxylic acid]	< 500 nM
O=c1[nH]c(C2CCN(c3nc(CCC(F)(F)F)cnc3-c3cc(F)c4occc4c3)CC2)no1 [Compound 146, 3-(1-(3-(7-fluorobenzofuran-5-yl)-6-(3,3,3-trifluoropropyl)pyrazin-2-yl)piperidin-4-yl)-1,2,4-oxadiazol-5(4H)-one]	< 500 nM
CCCCCc1cnc(-c2cc(F)c3occc3c2)c(N2CCC(C(=O)O)CC2)n1 [Compound 147, 1-(3-(7-fluorobenzofuran-5-yl)-6-pentylpyrazin-2-yl)piperidine-4-carboxylic acid]	< 500 nM
CCC(F)(F)Cc1cnc(-c2ccc(OCCOC)cc2)c(N2CCC(C(=O)O)CC2)n1 [Compound 148, 1-(6-(2,2-difluorobutyl)-3-(4-(2-methoxyethoxy)phenyl)pyrazin-2-yl)piperidine-4-carboxylic acid]	> 2000 nM
CCC(F)(F)Cc1cnc(-c2ccc3occc3c2)c(N2CCC(C(=O)O)CC2)n1 [Compound 149, 1-(3-(benzofuran-5-yl)-6-(2,2-difluorobutyl)pyrazin-2-yl)piperidine-4-carboxylic acid]	< 500 nM
CCC(F)(F)Cc1cnc(-c2ccc(OCC3CC3)cc2)c(N2CCC(C(=O)O)CC2)n1 [Compound 150, 1-(3-(4-(cyclopropylmethoxy)phenyl)-6-(2,2-difluorobutyl)pyrazin-2-yl)piperidine-4-carboxylic acid]	500 to 2000 nM
O=C(O)C1CCN(c2nc(CCCOC(F)(F)F)cnc2-c2ccc3occc3c2)CC1 [Compound 151, 1-(3-(benzofuran-5-yl)-6-(3-(trifluoromethoxy)propyl)pyrazin-2-yl)piperidine-4-carboxylic acid]	< 500 nM

Compound	IC50
O=C(O)C1CCN(c2nc(CCC(F)(F)F)cnc2-c2ccc(OCC3CC3)cc2)CC1 [Compound 152, 1-(3-(4-(cyclopropylmethoxy)phenyl)-6-(3,3,3-trifluoropropyl)pyrazin-2-yl)piperidine-4-carboxylic acid]	< 500 nM
O=C(O)C1CCN(c2nc(CCCCC(F)(F)F)cnc2-c2ccc(OCC3CC3)cc2)CC1 [Compound 153, 1-(3-(4-(cyclopropylmethoxy)phenyl)-6-(5,5,5-trifluoropentyl)pyrazin-2-yl)piperidine-4-carboxylic acid]	< 500 nM
O=C(O)C1CCN(c2nc(CCC(F)(F)C(F)(F)F)cnc2-c2ccc(OCC3CC3)cc2)CC1 [Compound 154, 1-(3-(4-(cyclopropylmethoxy)phenyl)-6-(3,3,4,4,4-pentafluorobutyl)pyrazin-2-yl)piperidine-4-carboxylic acid]	500 to 2000 nM
COCCOc1ccc(-c2ncc(CC(COC)COC)nc2N2CCC(C(=O)O)CC2)cc1 [Compound 155, 1-(6-(3-methoxy-2-(methoxymethyl)propyl)-3-(4-(2-methoxyethoxy)phenyl)pyrazin-2-yl)piperidine-4-carboxylic acid]	> 2000 nM
COCC(COC)Cc1cnc(-c2ccc(OCC3CC3)cc2)c(N2CCC(C(=O)O)CC2)n1 [Compound 156, 1-(3-(4-(cyclopropylmethoxy)phenyl)-6-(3-methoxy-2-(methoxymethyl)propyl)pyrazin-2-yl)piperidine-4-carboxylic acid]	> 2000 nM
O=C(O)C1CCN(c2nc(CCCC(F)(F)F)cnc2-c2ccc(OC(F)(F)F)cc2)CC1 [Compound 157, 1-(6-(4,4,4-trifluorobutyl)-3-(4-(trifluoromethoxy)phenyl)pyrazin-2-yl)piperidine-4-carboxylic acid]	< 500 nM
O=C(O)C1CCN(c2nc(CCCC(F)(F)F)cnc2-c2ccc(C(F)(F)F)cc2)CC1 [Compound 158, 1-(6-(4,4,4-trifluorobutyl)-3-(4-(trifluoromethyl)phenyl)pyrazin-2-yl)piperidine-4-carboxylic acid]	500 to 2000 nM
O=C(O)C1CCN(c2nc(CCCC(F)(F)F)cnc2-c2ccc(OC(F)F)cc2)CC1 [Compound 159, 1-(3-(4-(difluoromethoxy)phenyl)-6-(4,4,4-trifluorobutyl)pyrazin-2-yl)piperidine-4-carboxylic acid]	500 to 2000 nM
O=C(O)C1CCN(c2nc(CCCC(F)(F)F)cnc2-c2ccc3c(c2)OC(F)(F)O3)CC1 [Compound 160, 1-(3-(2,2-difluorobenzo[d][1,3]dioxol-5-yl)-6-(4,4,4-trifluorobutyl)pyrazin-2-yl)piperidine-4-carboxylic acid]	500 to 2000 nM
O=C(O)C1CCN(c2nc(CCC(F)(F)F)cnc2-c2ccc(OC(F)(F)F)cc2)CC1 [Compound 161, 1-(3-(4-(trifluoromethoxy)phenyl)-6-(3,3,3-trifluoropropyl)pyrazin-2-yl)piperidine-4-carboxylic acid]	500 to 2000 nM
O=C(O)C1CCN(c2nc(CCC(F)(F)F)cnc2-c2ccc(C(F)(F)F)cc2)CC1 [Compound 162, 1-(3-(4-(trifluoromethyl)phenyl)-6-(3,3,3-trifluoropropyl)pyrazin-2-yl)piperidine-4-carboxylic acid]	500 to 2000 nM
O=C(O)C1CCN(c2nc(CCC(F)(F)F)cnc2-c2ccc(OC(F)F)cc2)CC1 [Compound 163, 1-(3-(4-(difluoromethoxy)phenyl)-6-(3,3,3-trifluoropropyl)pyrazin-2-yl)piperidine-4-carboxylic acid]	500 to 2000 nM
O=C(O)C1CCN(c2nc(CCC(F)(F)F)cnc2-c2ccc3c(c2)OC(F)(F)O3)CC1 [Compound 164, 1-(3-(2,2-difluorobenzo[d][1,3]dioxol-5-yl)-6-(3,3,3-trifluoropropyl)pyrazin-2-yl)piperidine-4-carboxylic acid]	500 to 2000 nM
O=C(O)C1(O)CCN(c2nc(CCCC(F)(F)F)cnc2-c2cc(F)c3occc3c2)CC1 [Compound 165, 1-(3-(7-fluorobenzofuran-5-yl)-6-(4,4,4-trifluorobutyl)pyrazin-2-yl)-4-hydroxypiperidine-4-carboxylic acid]	< 500 nM
O=C(O)C1(O)CCN(c2nc(CCCC(F)(F)F)cnc2-c2ccc3c(c2)OCO3)CC1 [Compound 166, 1-(3-(benzo[d][1,3]dioxol-5-yl)-6-(4,4,4-trifluorobutyl)pyrazin-2-yl)-4-hydroxypiperidine-4-carboxylic acid]	500 to 2000 nM
COCCOc1ccc(-c2ncc(CCCC(F)(F)F)nc2N2CCC(O)(C(=O)O)CC2)cc1 [Compound 167, 4-hydroxy-1-(3-(4-(2-methoxyethoxy)phenyl)-6-(4,4,4-trifluorobutyl)pyrazin-2-yl)piperidine-4-carboxylic acid]	> 2000 nM

Same assay, conditions: 60 minute assay; HEK293T cells stably expressing GLUT9B and transiently A. oryzae uricase; uric acid 0.3 mM, 37° C.; read-out: 60 min IC50

Compound	IC50
COCCCCc1cnc(-c2ccc3occc3c2)c(N2CCC(C(=O)O)CC2)n1 [Compound 138, 1-(3-(benzofuran-5-yl)-6-(4-methoxybutyl)pyrazin-2-yl)piperidine-4-carboxylic acid]	< 500 nM
O=C(O)C1CCN(c2nc(CCCC(F)F)cnc2-c2ccc3occc3c2)CC1 [Compound 142, 1-(3-(benzofuran-5-yl)-6-(4,4-difluorobutyl)pyrazin-2-yl)piperidine-4-carboxylic acid]	< 500 nM
CCC(F)(F)Cc1cnc(-c2ccc(OCC3CC3)cc2)c(N2CCC(C(=O)O)CC2)n1 [Compound 150, 1-(3-(4-(cyclopropylmethoxy)phenyl)-6-(2,2-difluorobutyl)pyrazin-2-yl)piperidine-4-carboxylic acid]	> 2000 nM
